Laboratory results as given in ChEMBL document CHEMBL1126393, “Design, synthesis and activity against human cytomegalovirus of non-phosphorylatable analogs of toyocamycin, sangivamycin and thiosangivamycin” (Bioorg Med Chem Lett, 1992).

Tests used:
[1] = test system: HFF; test: In vitro inhibition of human cytomegalovirus in HFF cells by plaque reduction assay.; format: functional, cell-based
[2] = test system: HFF; test: Visual cytotoxicity of compound in uninfected cells determined by examining the effect on growth of HFF cells; format: functional, Homo sapiens
[3] = Cytotoxicity of compound in uninfected cells determined by examining the effect on growth of KBcells; format: functional, Homo sapiens
[4] = Selectivity index is the ratio of CC50 to IC50; format: functional
[5] = test system: HFF; test: Cytotoxicity of compound in uninfected cells determined by examining the effect on growth of HFF cells; format: functional, Homo sapiens

Compound	IC50 [1] [µM]	Cytotoxicity [2] [µM]	Cytotoxicity [3] [µM]	SI [4]	Cytotoxicity [5] [µM]
N#Cc1cn(COCCO)c2ncnc(N)c12	> 100	>100			
C=CCn1cc(C#N)c2c(N)ncnc21	> 100		>100		
Cn1cc(C(=N)S)c2c(N)ncnc21	1.2		14.7	12	
CCCn1cc(C(=N)S)c2c(N)ncnc21	1.2		17	14	
C=CCn1cc(C(N)=O)c2c(N)ncnc21	> 100		90		
Cn1cc(C(N)=O)c2c(N)ncnc21	> 100		>100		
NC(=S)c1cn(COC(CO)CO)c2ncnc(N)c12	6.2				>100
NC(=S)c1cn(COCCO)c2ncnc(N)c12	8.8		115	13	
C=CCn1cc(C(N)=S)c2c(N)ncnc21	2.1		19	9	
N#Cc1cn(COC(CO)CO)c2ncnc(N)c12	> 100	>100			
CCCn1cc(C(N)=O)c2c(N)ncnc21	> 100		90		
Cn1cc(C#N)c2c(N)ncnc21	> 100		>100		
Nc1nc2c(ncn2COC(CO)CO)c(=O)[nH]1 [GANCICLOVIR]	8.4		>100		
CCCn1cc(C#N)c2c(N)ncnc21	36		>100		
NC(=O)c1cn(COCCO)c2ncnc(N)c12	> 100				>100
NC(=O)c1cn(COC(CO)CO)c2ncnc(N)c12	> 100				>100
